Data from article PMC10244465, “Native American ataxia medicines rescue ataxia-linked mutant potassium channel activity via binding to the voltage sensing domain” (Nature Communications, 2023).
Read-outs that look alike come from different tables or passages of the source.

Key:
Format in all cases: cell-based
[1] = target: T1, Kv1.1/Kv1.1-L155P channels (Homo sapiens, UniProt Q09470, L155P); test: TEVC of oocytes co-injected with 50/50 wild-type/L155P Kv1.1 cRNA
T1 construct: expressed in transfected cells; host or cells: Xenopus laevis oocytes co-injected with 50/50 wild-type/L155P cRNA
T1 sequence (Q09470 whole entry, stated change not applied): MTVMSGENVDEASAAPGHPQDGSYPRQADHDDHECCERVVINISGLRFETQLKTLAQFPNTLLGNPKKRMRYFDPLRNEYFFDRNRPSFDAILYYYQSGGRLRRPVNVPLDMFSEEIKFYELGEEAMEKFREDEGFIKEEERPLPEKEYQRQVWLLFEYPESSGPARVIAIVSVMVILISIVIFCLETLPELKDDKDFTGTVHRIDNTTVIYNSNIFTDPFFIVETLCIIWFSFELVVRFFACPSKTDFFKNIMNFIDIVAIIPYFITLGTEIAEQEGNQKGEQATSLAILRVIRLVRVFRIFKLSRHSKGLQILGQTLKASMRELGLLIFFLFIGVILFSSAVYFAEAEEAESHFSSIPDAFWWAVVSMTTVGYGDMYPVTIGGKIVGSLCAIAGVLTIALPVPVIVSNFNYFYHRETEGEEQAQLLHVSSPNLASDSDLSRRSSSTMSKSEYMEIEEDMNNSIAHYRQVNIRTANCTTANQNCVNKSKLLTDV
T1 sequence (Q09470 whole entry L155P): as the sequence (Q09470 whole entry, stated change not applied) above, with L155P counted along it
From the text: As previously described[24], we generated cRNA transcripts encoding human Kv1.1 (wild-type and mutant) and Kv1.2, by in vitro transcription using the mMessage mMachine kit (Thermo Fisher Scientific), after vector linearization, from cDNA sub-cloned into plasmids (pTLNx) incorporating Xenopus laevis β-globin 5’ and 3’ UTRs flanking the coding region to enhance translation and cRNA stability. We injected defolliculated stage V and VI Xenopus laevis oocytes (Xenoocyte, Dexter, MI, US) with Kv1 cRNAs (1–5 ng). We incubated the oocytes at 16 °C in ND96 oocyte storage solution containing penicillin and streptomycin, with daily washing, for 2 days prior to two-electrode voltage-clamp (TEVC) recording.
(§2) We performed TEVC at room temperature using an OC-725C amplifier (Warner Instruments, Hamden, CT) and pClamp10 software (Molecular Devices, Sunnyvale, CA) 2 days after cRNA injection as described in the section above. For recording, oocytes we placed in a small-volume oocyte bath (Warner) and viewed with a dissection microscope. We sourced chemicals from Sigma. We studied effects of plant extracts and of compounds, solubilized directly in bath solution (in mM): 96 NaCl, 4 KCl, 1 MgCl2, 1 CaCl2, 10 HEPES (pH 7.6). We introduced extracts or compounds into the oocyte recording bath by gravity perfusion at a constant flow of 1 ml per minute for 3 min prior to recording. Pipettes were of 1–2 MΩ resistance when filled with 3 M KCl. We recorded currents in response to voltage pulses between −80 mV and +40 mV at 10 or 20 mV intervals from a holding potential of −80 mV, to yield current-voltage relationships and examine activation kinetics. To calculate the voltage dependence of activation (V0.5), tail currents were recorded at a voltage pulse of −50 mV immediately following prepulse voltages between −80 mV and +40 mV. We analyzed data using Clampfit (Molecular Devices) and Graphpad Prism software (GraphPad, San Diego, CA, USA), stating values as mean ± SEM. We plotted raw or normalized tail currents vs. prepulse voltage and fitted with a single Boltzmann function:1 g=(A1−A2)/1+exp[V1/2−V/Vs]y+A2 where g is the normalized tail conductance, A1 is the initial value at -∞, A2 is the final value at +∞, V1/2 is the half-maximal voltage of activation and Vs the slope factor.

Kv1.1-E283K channels = target: T2, Kv1.1-E283K channels (Homo sapiens, UniProt Q09470, E283K); test: TEVC of oocytes injected with 100% Kv1.1-E283K cRNA; conditions: for EC50: biphasic dose response
T2 construct: expressed in transfected cells; host or cells: Xenopus laevis oocytes
T2 sequence (Q09470 whole entry E283K): as the sequence (Q09470 whole entry, stated change not applied) above, with E283K counted along it
From the text: as §2

Kv1.1-G311D channels = target: T3, Kv1.1-G311D channels (Homo sapiens, UniProt Q09470, G311D); test: TEVC of oocytes expressing 100% Kv1.1-G311D; conditions: compound 1 µM
T3 construct: expressed in transfected cells; host or cells: Xenopus laevis oocytes
T3 sequence (Q09470 whole entry G311D): as the sequence (Q09470 whole entry, stated change not applied) above, with G311D counted along it
From the text: EA1 mutant G311D is in the S4-5 linker of Kv1.1 (Fig. 5a) and produces a 65% prepulse current reduction both in Kv1.1-G311D and in Kv1.1/Kv1.1-G311D channels[43],[44]; either channel type was minimally responsive to the plant extracts tested (Supplementary Figs. 3 and 4). EA1 mutant L328V (which is associated with tetany and hypomagnesemia) is located in the intracellular end of Kv1.1 S5 (Fig. 5a) and results in complete current loss in a dominant negative manner, i.e., Kv1.1-L328V and Kv1.1/Kv1.1-L328V channels are each nonfunctional. The traditional ataxia remedy plant extracts were unable to rescue Kv1.1-L328V or Kv1.1/Kv1.1-L328V function (Supplementary Figs. 5 and 6). EA1 mutant V408A is in the intracellular-proximal end of Kv1.1 S6 (Fig. 5a) and reduces current, speeds deactivation, and increases C-type inactivation of Kv1.1[46]. Here, Native American ataxia remedy extracts had relatively minor effects on Kv1.1-V408A activity, with nettle and Pacific ninebark (roots or leaves) inducing hyperpolarizing shifts in EM, and Pacific ninebark leaves inducing a negative shift in the voltage dependence of activation, although this was not quantifiable due to the very small tail currents (Supplementary Fig. 7). Effects of the extracts on Kv1.1/Kv1.1-V408A activity were also relatively minor (Supplementary Fig. 8). […]

[2] = target: T4, Kv1.1/Kv1.1-E283K/Kv1.2 channels (Homo sapiens, UniProt Q09470, E283K); test: TEVC of oocytes co-injected 1:1:2 Kv1.1:Kv1.1-E283K:Kv1.2 cRNA; conditions: even at 0.1 µM
T4 construct: expressed in transfected cells; host or cells: Xenopus laevis oocytes co-injected 1:1:2 Kv1.1:Kv1.1-E283K:Kv1.2 cRNA
T4 sequence (Q09470 whole entry, stated change not applied): as the sequence (Q09470 whole entry, stated change not applied) above
T4 sequence (Q09470 whole entry E283K): as the sequence (Q09470 whole entry, stated change not applied) above, with E283K counted along it
T4 sequence (P16389 whole entry partner): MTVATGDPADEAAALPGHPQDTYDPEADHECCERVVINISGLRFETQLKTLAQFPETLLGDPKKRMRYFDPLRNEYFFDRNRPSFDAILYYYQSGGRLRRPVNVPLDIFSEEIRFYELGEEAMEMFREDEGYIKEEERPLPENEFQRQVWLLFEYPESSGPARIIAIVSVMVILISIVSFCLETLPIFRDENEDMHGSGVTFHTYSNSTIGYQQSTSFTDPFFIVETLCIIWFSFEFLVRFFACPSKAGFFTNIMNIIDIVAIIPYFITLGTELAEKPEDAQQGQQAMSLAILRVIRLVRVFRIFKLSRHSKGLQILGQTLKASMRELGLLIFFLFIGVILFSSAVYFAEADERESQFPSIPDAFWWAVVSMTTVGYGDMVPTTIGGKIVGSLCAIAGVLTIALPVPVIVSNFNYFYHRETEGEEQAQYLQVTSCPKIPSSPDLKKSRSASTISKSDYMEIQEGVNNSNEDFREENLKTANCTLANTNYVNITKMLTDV
From the text: Kv1.1 α subunits form heteromeric tetramers with other Kv1 subfamily α subunits, including Kv1.2, in the […] region of axons and some terminals, in the hippocampus (perforant input from entorhinal cortex, mossy fiber projections from granule cells to CA3, and CA3 axon collaterals)[7]–[11]. We therefore tested effects of gallic acid on Kv1.1/Kv1.2 heteromers generated in oocytes by co-injection of 1:1:2 parts Kv1.1:Kv1.1-E283K:Kv1.2 or Kv1.1:Kv1.1-L155P:Kv1.2 cRNA to approximate the Kv1.1/Kv1.2 heteromeric channel composition in EA1 patients heterozygous for either mutant KCNA1 allele. […]
(§1) We performed TEVC at room temperature using an OC-725C amplifier (Warner Instruments, Hamden, CT) and pClamp10 software (Molecular Devices, Sunnyvale, CA) 2 days after cRNA injection as described in the section above. […] We recorded currents in response to voltage pulses between −80 mV and +40 mV at 10 or 20 mV intervals from a holding potential of −80 mV, to yield current-voltage relationships and examine activation kinetics. To calculate the voltage dependence of activation (V0.5), tail currents were recorded at a voltage pulse of −50 mV immediately following prepulse voltages between −80 mV and +40 mV. We analyzed data using Clampfit (Molecular Devices) and Graphpad Prism software (GraphPad, San Diego, CA, USA), stating values as mean ± SEM. […]

[3] = target: T5, Kv1.1-I182S, E192I, K195N (Kv1.1–3 M) (Homo sapiens, UniProt Q09470, E191I/I183S/K196N); test: TEVC of oocytes expressing Kv1.1-3M
T5 construct: expressed in transfected cells; host or cells: Xenopus laevis oocytes
T5 sequence (Q09470 whole entry I183S/E191I/K196N): as the sequence (Q09470 whole entry, stated change not applied) above, with I183S, E191I, K196N counted along it
From the text: The functional data support a Kv1.1 gallic acid-binding site similar to that predicted by the MD simulation (Fig. 10f; Supplementary Movie 1).
Wild-type and mutant Kv1 cDNAs were generated (Genscript, Piscataway, NJ) in the pTLNx expression vector. As previously described, we generated cRNA transcripts encoding human Kv1.1 (wild-type and mutant) and Kv1.2, by in vitro transcription using the mMessage mMachine kit (Thermo Fisher Scientific), after vector linearization, from cDNA sub-cloned into plasmids (pTLNx) incorporating Xenopus laevis β-globin 5’ and 3’ UTRs flanking the coding region to enhance translation and cRNA stability. We injected defolliculated stage V and VI Xenopus laevis oocytes (Xenoocyte, Dexter, MI, US) with Kv1 cRNAs (1–5 ng). We incubated the oocytes at 16 °C in ND96 oocyte storage solution containing penicillin and streptomycin, with daily washing, for 2 days prior to two-electrode voltage-clamp (TEVC) recording.
as §1, with “above. For recording, oocytes we placed in a small-volume oocyte bath (Warner) and viewed with a dissection microscope. We sourced chemicals from Sigma. We studied effects of plant extracts and of compounds, solubilized directly in bath solution (in mM): 96 NaCl, 4 KCl, 1 MgCl2, 1 CaCl2, 10 HEPES (pH 7.6).” for “above.”

[4] = -20 mV, Figure 6 table, head 1 µM Tannic acid, footnote bladderwrack kelp

How did the “effect on channel activity” value ([1]; compound 1 µM) turn out when tannic acid was run?
Its value is “minimal”.

And the TauAct (Kv1.1-E283K channels; 0 mV, 1 µM, Figure 9 table)?
The TauAct was 15.70 ± 1.40 ms.

What about the TauAct (Kv1.1-E283K channels; 0 mV, Figure 6 table, head 1 µM Tannic acid, footnote bladderwrack kelp) of the same molecule?
Its TauAct is 21.12 ± 4.35 ms.

And the “Peak current at -40 mV” value (Kv1.1-E283K channels; 0.1 µM)?
The value was 0.02 ± 0.01 µA.

What about the “Peak current at -40 mV” value (Kv1.1-E283K channels; 1 µM) of the same molecule?
Its value is 0.02 ± 0.01 µA.

And the “shift in the EM” value (Kv1.1-E283K channels; 1 µM)?
Its value is ~−20 mV.

What about the “shift of V0.5 activation” value (Kv1.1-E283K channels; 1 µM) of the same molecule?
The value was −13 ± 0.26 mV.

And the “Current-fold change -30 mV” value (Kv1.1-E283K channels; 1 µM compound)?
The value was 4.69 ± 1.69.

And the increase of activity (Kv1.1-E283K channels; 1 µM, at −40 to −20 mV)?
Its increase of activity is ≤ 20 fold.

And the “Peak current at -40 mV” value (Kv1.1-E283K channels; 10 µM)?
The value was 0.02 ± 0.01 µA.

And the “Peak current at -40 mV” value (Kv1.1-E283K channels; 30 µM)?
Its value is 0.02 ± 0.01 µA.

What about the “Peak current at -40 mV” value (Kv1.1-E283K channels; 100 µM) of the same molecule?
Its value is 0.03 ± 0.01 µA.

What about the TauAct (Kv1.1-E283K channels; +10 mV, 1 µM, Figure 9 table) of the same molecule?
Its TauAct is 12.94 ± 1.05 ms.

And the TauAct (Kv1.1-E283K channels; +10 mV, Figure 6 table, head 1 µM Tannic acid, footnote bladderwrack kelp)?
The TauAct was 17.43 ± 3.97 ms.

And the TauAct (Kv1.1-E283K channels; +20 mV, 1 µM, Figure 9 table)?
Its TauAct is 11.30 ± 0.89 ms.

And the TauAct (Kv1.1-E283K channels; +20 mV, Figure 6 table, head 1 µM Tannic acid, footnote bladderwrack kelp)?
Its TauAct is 12.72 ± 2.85 ms.

And the TauAct (Kv1.1-E283K channels; +30 mV, 1 µM, Figure 9 table)?
Its TauAct is 10.16 ± 0.83 ms.

And the TauAct (Kv1.1-E283K channels; +30 mV, Figure 6 table, head 1 µM Tannic acid, footnote bladderwrack kelp)?
The TauAct was 10.63 ± 2.79 ms.

And the TauAct (Kv1.1-E283K channels; +40 mV, 1 µM, Figure 9 table)?
Its TauAct is 9.46 ± 0.83 ms.

And the TauAct (Kv1.1-E283K channels; +40 mV, Figure 6 table, head 1 µM Tannic acid, footnote bladderwrack kelp)?
Its TauAct is 10.04 ± 2.65 ms.

And the TauAct (Kv1.1-E283K channels; -10 mV, 1 µM, Figure 9 table)?
Its TauAct is 20.71 ± 2.35 ms.

What about the TauAct (Kv1.1-E283K channels; -10 mV, Figure 6 table, head 1 µM Tannic acid, footnote bladderwrack kelp) of the same molecule?
The TauAct was 27.06 ± 7.08 ms.

What about the TauAct (Kv1.1-E283K channels; -20 mV, 1 µM, Figure 9 table) of the same molecule?
The TauAct was 31.31 ± 2.98 ms.

And the TauAct (Kv1.1-E283K channels; [4])?
Its TauAct is 41.32 ± 8.47 ms.

What about the TauDeact (Kv1.1-E283K channels; [4]) of the same molecule?
The TauDeact was 0.87 ± 0.36 ms.

And the TauDeact (Kv1.1-E283K channels; -30 mV, Figure 6 table, head 1 µM Tannic acid, footnote bladderwrack kelp)?
The TauDeact was 0.79 ± 0.32 ms.

And the TauDeact (Kv1.1-E283K channels; -40 mV, Figure 6 table, head 1 µM Tannic acid, footnote bladderwrack kelp)?
The TauDeact was 0.88 ± 0.36 ms.

And the TauDeact (Kv1.1-E283K channels; -50 mV, Figure 6 table, head 1 µM Tannic acid, footnote bladderwrack kelp)?
The TauDeact was 1.04 ± 0.44 ms.

And the TauDeact (Kv1.1-E283K channels; -60 mV, Figure 6 table, head 1 µM Tannic acid, footnote bladderwrack kelp)?
The TauDeact was 1.23 ± 0.52 ms.

And the TauDeact (Kv1.1-E283K channels; -70 mV, Figure 6 table, head 1 µM Tannic acid, footnote bladderwrack kelp)?
Its TauDeact is 1.38 ± 0.56 ms.

And the TauDeact (Kv1.1-E283K channels; -80 mV, Figure 6 table, head 1 µM Tannic acid, footnote bladderwrack kelp)?
The TauDeact was 1.50 ± 0.57 ms.

What about the EC50 (Kv1.1-E283K channels; read-out: EC50 for effects on EM, first component) of the same molecule?
The EC50 was 1.1 ± 0.9 nM.

And the EC50 (Kv1.1-E283K channels; read-out: EC50 for effects on EM, second component)?
The EC50 was 10000 ± 400 nM.

And the EC50 (Kv1.1-E283K channels; from the increase in relative tail current at −40 mV, read-out: EC50, higher sensitivity component)?
Its EC50 is 3.7 ± 2.6 nM.

And the EM (Kv1.1-E283K channels; in presence of 1 µM compound)?
Its EM is -44.83 ± 0.14 mV.

And the Slope (Kv1.1-E283K channels; in presence of 1 µM compound)?
Its Slope is 8.70 ± 1.19 mV.

And the “V0.5 Normalized tail current” value (Kv1.1-E283K channels; in presence of 1 µM compound)?
The value was -22.75 ± 1.34 mV.

What about the “effect on channel activity” value (Kv1.1-G311D channels) of the same molecule?
Its value is “did not alter”.

How did the “hyperpolarization of EM” value ([1]; 1 µM) turn out when O=C(O)c1cc(O)c(O)c(O)c1 [gallic acid] was run?
Its value is “–9.1 ± 0.8 mV”.

What about the “shift in the voltage dependence of activation (V0.5 act)” value (shortened to “shift in the voltage dependence”) ([1]; 1 µM) of the same molecule?
Its value is −6.8 ± 0.6 mV.

And the “hyperpolarization of EM” value ([1]; 10 µM)?
The value was −14.0 ± 0.6 mV.

And the “shift in the voltage dependence” value ([1]; 10 µM)?
The value was −12.5 ± 0.6 mV.

And the “hyperpolarization of EM” value ([1]; 100 µM)?
Its value is −15.2 ± 0.7 mV.

And the “shift in the voltage dependence” value ([1]; 100 µM)?
Its value is −14.1 ± 0.6 mV.

And the EM ([1]; in presence of 1 µM compound)?
The EM was -45.00 ± 0.78 mV.

What about the Slope ([1]; in presence of 1 µM compound) of the same molecule?
The Slope was 4.84 ± 0.56 mV.

And the “V0.5 Normalized tail current” value ([1]; in presence of 1 µM compound)?
Its value is -30.59 ± 0.60 mV.

What about the EM ([1]; in presence of 10 µM compound) of the same molecule?
Its EM is -48.89 ± 0.66 mV.

And the Slope ([1]; in presence of 10 µM compound)?
The Slope was 4.76 ± 0.51 mV.

And the “V0.5 Normalized tail current” value ([1]; in presence of 10 µM compound)?
The value was -36.38 ± 0.62 mV.

And the EM ([1]; in presence of 100 µM compound)?
The EM was -50.11 ± 0.69 mV.

What about the Slope ([1]; in presence of 100 µM compound) of the same molecule?
The Slope was 4.68 ± 0.55 mV.

What about the “V0.5 Normalized tail current” value ([1]; in presence of 100 µM compound) of the same molecule?
The value was -37.93 ± 0.62 mV.

What about the “effect on channel activity” value (Kv1.1-E283K channels; compound 1 µM) of the same molecule?
The value was “only very minor functional improvements”.

What about the “effect on channel activity” value (Kv1.1-G311D channels) of the same molecule?
The value was “ineffective at rescuing activity”.

And the “rescue of channel activity” value [2]?
The value was “highly effective at rescuing”.

What about the EC50 [3] of the same molecule?
The EC50 was 345 ± 38 nM.

What about the “EC50 for peak current augmentation” value ([3]; at −40 mV) of the same molecule?
The value was “not measurable”.

What about the “maximal peak current augmentation compared to Kv1.1” value ([3]; at −40 mV) of the same molecule?
Its value is “reduced fivefold”.
